Literature values, collected in patent US20070031352A1, “Powdery preparations containing diethylamino-hydroxybenzoyl-hexyl-benzoate” (BASF Aktiengesellschaft, priority 2003, published 2007).

Details: at 354 nm

absorbance coefficient: 940
SMILES: CCCCCCOC(=O)c1ccccc1C(=O)c1ccc(N(CC)CC)cc1O [Uvinul® A Plus, diethylamino hydroxybenzoyl hexyl benzoate]
